Assay results as given in patent US20070213366A1, “Treatment of Synucleinopathies” (priority 2005, published 2007).
“Also recorded” adds a separate entry of the source.

How the values were obtained:
[1] = test system: α-synuclein; test: α-synuclein degradation/accumulation assay in COS-7 cells; assay type: cell-based
From the text: Plasmids: C220S cDNA was generated by PCR site-specific mutagenesis. For the PCR, the 5′ primer is uchforw SEQ ID NO: 1 ([…]), and 3′ primer is uchc220s SEQ ID NO:2 (CTAAGA […]). Wt UCH-L1 served as the template. The PCR fragment was inserted into pcDNA vector. For S 18YC220S mutant, S18Y UCH-L1 served as the template in PCR. For the FLAG tagged UCH-L1, the 5′ primer is FLAGuchforw SEQ ID NO: 3 ([…] CGATGGAG), and the 3′ primer is uchrev SEQ ID NO: 4 ([…]). Wt UCH-L1 or C220S served as the template. PCR fragment was purified and inserted into pcDNA vector. For the FLAG tagged UCH-L3, the 5′ primer is L3HindIII SEQ ID NO: 5 (CTAAAGCTTATGGACTAC […]), the 3′primer is L3XhoISAA SEQ ID NO: 6 ([…]). For the UCH-L3 CKAA variant, the 5′ primer is L3 HindIII and the 3′ primer is L3XhoICKAA SEQ ID NO: 7 ([…]). α-synuclein degradation assay: Lipofectamine 2000 was used to transfect COS-7 cells according to the Invitrogen protocol. Transfected cells were cultured at 37° C. for 48 hours before being treated with 35 μM lactacystin or DMSO. After 24 hours of incubation, the cells were lysed with Tris buffer (50 mM Tris, 2% SDS, 0.1% NP-40), and subjected to SDS-PAGE, followed by quantitative Western blotting.
In order to isolate the latter possibility, a mutant form of UCH-L3 was constructed in which the UCH-L1 farnesylation sequence was added to the UCH-L3 C-terminus. […]

[2] = test system: UCH-L1; test: Total amount and turnover (pulse-chase) of UCH-L1 in SH-SY5Y cells; assay type: cell-based
[3] = test system: primary dopaminergic cultures; test: α-synuclein toxicity in primary dopaminergic cultures; assay type: cell-based
[4] = test system: SH-SY5Y cells overexpressing α-synuclein; test: Viability (Trypan blue, MTT) of SH-SY5Y cells infected by α-synuclein-expressing adenovirus; assay type: cell-based
Procedure: Viral Infection: Viral infection and MTT assay in SH-SY5Y cells: The viruses were amplified and purified according to the published procedure. SH-SY5Y cells were grown on 100 mm petri-dishes and induced with 100 nM retinoic acid for 3-5 days before the virus infection with M.I.O at 75. Viruses were diluted with DPBS to desired M.I.O. After four hours of incubation, 10 ml growth medium was added. On the second day, cells were splitted into 96-well plates and treated with compounds for next 48 hours. The growth medium in each well was replaced with growth medium with 5 ug/ml MTT. Medium was removed after three hours incubation, and 200 ul isopropyl (0.04N HCl) was added into each well. The signal was read at 570 nm.
Viable cell counting: At stated time poins, SH-SY5Y cells were trypsinized with 100 ul trypsin-EDTA for 1 minute and neutralized with 400 ul growth medium. Cell suspension was made up by mixing 0.2 ml of cells in growth medium, 0.3 ml of HBSS and 0.5 ml of 0.4% Trypan Blue solution. Viable cell numbers were counted by standard cell counting chamber.
Since α-synuclein neurotoxicity is dose-dependent, it follows that accumulation of α-synuclein, caused by UCH-L1 farnesylation, should promote its toxicity. […] These cells express high endogenous levels of UCH-L1. […] The unit of y-axis is 10^5/ml. (F) Cell viability was assessed by the amount of metabolic activity using MTT assay. […]

[5] = test system: UCH-L1; test: 2D electrophoresis and Western blot of membrane-bound and cytosolic UCH-L1 in SH-SY5Y cells; assay type: cell-based; conditions: compared to DMSO
Procedure: Membrane fractionation: Cells were harvested by scraping and washed with PBS. Cell pellet was suspended in lysis buffer (50 mM Tris-HCl, 1 mM EDTA) supplemented with protease inhibitor cocktail (Sigma) and homogenized by passing through 26G needles 10 times. Suspension was clarified by spinning at 600 g for 5 minutes. Clarified suspension was ultracentrifuged at 100,000 g for 2 hours and separated into membrane and cytosol. Membrane fraction washed with washing buffer (50 mM Tris-HCl, 1 mM EDTA 1 M NaCl), and pelleted each time with bench-top centrifuge.
2D electrophoresis: For the isolation of total cellular protein, cultured SH-SY5Y cells maintained as described above were rinsed with ice-cold PBS. Cells were lysed in 1 ml dSDS buffer (50 mM Tris-HCl, pH 8.0 0.1% SDS) supplemented with protease inhibitor cocktail. Lysates were boiled for 3 min, and were treated with Dnase and Rnase as described. […]
Western Blotting: Following transfer of SDS gels onto NC membrane, all membranes were blocked with 5% non-fat milk in TBST (50 mM Tris-HCl pH7.4, 150 mM NaCl, 0.1% Tween 20), and incubated with primary antibody overnight with 1% BSA in TBST, washed three times with TBST, and incubated with horseradish peroxidase-conjugated secondary antibody for 1 hour (Promega). Bound antibodies were detected using enhanced chemiluminascence (NEM). […]

[6] = test system: α-synuclein; test: Western blot of α-synuclein in SH-SY5Y cells infected with α-synuclein-expressing adenovirus; assay type: cell-based; conditions: normalized against actin
Procedure: Western Blotting: Following transfer of SDS gels onto NC membrane, all membranes were blocked with 5% non-fat milk in TBST (50 mM Tris-HCl pH7.4, 150 mM NaCl, 0.1% Tween 20), and incubated with primary antibody overnight with 1% BSA in TBST, washed three times with TBST, and incubated with horseradish peroxidase-conjugated secondary antibody for 1 hour (Promega). Bound antibodies were detected using enhanced chemiluminascence (NEM).
Since α-synuclein neurotoxicity is dose-dependent, it follows that accumulation of α-synuclein, caused by UCH-L1 farnesylation, should promote its toxicity. […] These cells express high endogenous levels of UCH-L1. […] The unit of y-axis is 10^5/ml. (F) Cell viability was assessed by the amount of metabolic activity using MTT assay. […] The effect of FTI-277 on the α-synuclein accumulation in the SH-SY5Y infected with α-synuclein-expressing adenovirus were analyzed by Western blotting (B) and the amount of α-synuclein (C) was quantified using NIH Image program and normalized against the amount of actin.

[7] = test system: human α-synuclein; test: Immunostaining of α-synuclein inclusions in cortex and hippocampus of α-synuclein transgenic mice; assay type: in vivo
Procedure: Farnesyl transferase inhibitors Zarnestra and OSI-754 were administered to mice of the α-synuclein transgenic line described in Masliah et al. (Masliah et al. “Dopaminergic loss and inclusion body formation in alphα-synuclein mice: implications for neurodegenerative disorders” Science 287(5456): 1265-69, 2000; incorporated herein by reference). Animals from this line have α-synuclein neuronal inclusions in the cortex, hippocampus, and the olfactory bulb (Masliah et al. “Dopaminergic loss and inclusion body formation in alphα-synuclein mice: implications for neurodegenerative disorders” Science 287(5456): 1265-69, 2000; incorporated herein by reference). Transgenic mice were orally administered either FTI in 20% cyclodextrin solution or the same volume of vehicle alone twice a day for 30 or 90 days. In some cases, non-transgenic mice also received vehicle twice a day for 30 to 90 days. At the end of treatment, mice were sacrificed, and the brains removed and hemisected. One hemisphere of each was fixed in 4% paraformaldehyde/PBS (pH 7.4), cryoperserved, then sectioned for histology. The other hemisphere was subdivided into four brain regions, including the cortex and hippocampus, that were homogenized and processed into cytoplasmic and membrane fractions.
Formation of α-synuclein inclusions in the cortex and hippocampus was probed by immunostaining with an antibody for full-length human α-synuclein. Cells positive for human α-synuclein were quantified. […] These regions were also analyzed for ubiquitin-immunoreactive inclusions and by the Campbell Switzer method of silver staining. Ubiquitin is known to be a constituent of Lewy Bodies and in the α-synculein inclusions found in the transgenic mouse line used in the study (Masliah et al. “Dopaminergic loss and inclusion body formation in alphα-synuclein mice: implications for neurodegenerative disorders” Science 287(5456): 1265-69, 2000; incorporated herein by reference). […] Campbell-Switzer staining is a general marker of Lewy Body type inclusions (Uchihara et al. “Silver stainings distinguish Lewy bodies and glial cytoplasmic inclusions: comparison between Gallyas-Braak and Campbell-Switzer methods” Acta Neuropathol. (Berl) 110(3):255-60, 2005; incorporated herein by reference).
Formation of α-synuclein inclusions in the cortex and hippocampus was probed by immunostaining with an antibody for full-length human α-synuclein. Cells positive for human α-synuclein were quantified.

[8] = test system: α-synuclein; test: Sandwich ELISA of total α-synuclein in cortex fractions of α-synuclein transgenic mice; assay type: in vivo; conditions: 45 mg/kg twice a day for 30 days, vs vehicle-treated transgenic mice
Procedure: (§1) Farnesyl transferase inhibitors Zarnestra and OSI-754 were administered to mice of the α-synuclein transgenic line described in Masliah et al. (Masliah et al. “Dopaminergic loss and inclusion body formation in alphα-synuclein mice: implications for neurodegenerative disorders” Science 287(5456): 1265-69, 2000; incorporated herein by reference). Animals from this line have α-synuclein neuronal inclusions in the cortex, hippocampus, and the olfactory bulb (Masliah et al. “Dopaminergic loss and inclusion body formation in alphα-synuclein mice: implications for neurodegenerative disorders” Science 287(5456): 1265-69, 2000; incorporated herein by reference). Transgenic mice were orally administered either FTI in 20% cyclodextrin solution or the same volume of vehicle alone twice a day for 30 or 90 days. […]
(§2) Treatment with 35 mg/kg Zarnestra twice a day for 30 days decreased levels of α-synuclein protein in the cortex and the amount of farnesylated UCH-L1 in the cortex of transgenic mice. Total α-synuclein levels were analyzed by a sandwich ELISA assay similar to one previously described (El-Agnaf et al. “Detection of oligomeric forms of alphα-synuclein protein in human plasma as a potential biomarker for Parkinson's disease” FASEB J. 20(3):419-25, 2006; incorporated herein by reference). […] The amount of UCH-L1 was determined by quantitative Western Blot. […]

[9] = test system: farnesylated UCH-L1; test: Quantitative Western blot of farnesylated UCH-L1 in cortex membrane fraction of α-synuclein transgenic mice; assay type: in vivo
Procedure: as §1, §2

[10] = test system: Lewy body-like inclusions; test: Campbell Switzer silver staining of Lewy body-like inclusions in α-synuclein transgenic mice; assay type: in vivo; conditions: 35 mg/kg twice a day for 30 days, vs vehicle
Procedure: (§3) Farnesyl transferase inhibitors Zarnestra and OSI-754 were administered to mice of the α-synuclein transgenic line described in Masliah et al. (Masliah et al. “Dopaminergic loss and inclusion body formation in alphα-synuclein mice: implications for neurodegenerative disorders” Science 287(5456): 1265-69, 2000; incorporated herein by reference). Animals from this line have α-synuclein neuronal inclusions in the cortex, hippocampus, and the olfactory bulb (Masliah et al. “Dopaminergic loss and inclusion body formation in alphα-synuclein mice: implications for neurodegenerative disorders” Science 287(5456): 1265-69, 2000; incorporated herein by reference). Transgenic mice were orally administered either FTI in 20% cyclodextrin solution or the same volume of vehicle alone twice a day for 30 or 90 days. In some cases, non-transgenic mice also received vehicle twice a day for 30 to 90 days. At the end of treatment, mice were sacrificed, and the brains removed and hemisected. […]
(§4) Formation of α-synuclein inclusions in the cortex and hippocampus was probed by immunostaining with an antibody for full-length human α-synuclein. Cells positive for human α-synuclein were quantified. […] These regions were also analyzed for ubiquitin-immunoreactive inclusions and by the Campbell Switzer method of silver staining. […]

[11] = test system: ubiquitin-immunoreactive inclusions; test: Ubiquitin immunohistochemistry in α-synuclein transgenic mice; assay type: in vivo; conditions: 35 mg/kg twice a day for 30 days, vs vehicle
Procedure: as §3, §4

[12] = 9 mg/kg twice a day for 90 days, vs vehicle
[13] = 45 mg/kg twice a day for 90 days, vs vehicle
[14] = 35 mg/kg twice a day for 30 days, vs vehicle

COC(=O)[C@H](CCSC)NC(=O)c1ccc(NC[C@@H](N)CS)cc1-c1ccccc1 [FTI-277]
synuclein level ([1]; COS-7 cells): lowers synuclein level | total amount of UCH-L1 [2]: reduced the total amount of UCH-L1 | rate of turnover of UCH-L1 ([2]; pulse-chase experiment not shown): increased its rate of turnover | α-synuclein toxicity [3]: inhibit α-synuclein toxicity | α-synuclein toxicity / loss of cells ([4]; SH-SY5Y cells overexpressing α-synuclein via adenovirus, compared to DMSO): inhibits synuclein toxicity; also recorded: rescued α-synuclein toxicity; also recorded: significantly decreased loss of cells | neuroprotective effect of FTI-277 on co-administration of the small-molecule UCH-L1 inhibitor ([4]; SH-SY5Y cells overexpressing α-synuclein, not shown): eliminated | amount of cytosolic UCH-L1 [5]: without affecting | amount of membrane bound UCH-L1 [5]: significant decrease; also recorded: decreased the amount of the membrane-associated species; also recorded: reducing the amount of membrane-associated protein | amount of α-synuclein [6]: reducing the amount of α-synuclein accumulation; also recorded: reduced the amount of α-synuclein

C#Cc1cccc(-c2cc(=O)n(C)c3ccc(C(O)(c4ccc(Cl)cc4)c4cncn4C)cc23)c1 (stereo not shown) [OSI-754]
inclusions vs vehicle ([7]; 9 mg/kg twice a day for 90 days): fewer inclusions | α-synuclein-positive cells per mm^2, cortex [7, 12]: fewer α-synuclein-positive cells | α-synuclein-positive cells per mm^2, hippocampus [7, 12]: fewer α-synuclein-positive cells | inclusions vs vehicle ([7]; 45 mg/kg twice a day for 90 days): fewer inclusions | α-synuclein-positive cells per mm^2, cortex [7, 13]: fewer α-synuclein-positive cells | α-synuclein-positive cells per mm^2, hippocampus [7, 13]: fewer α-synuclein-positive cells | α-synuclein protein levels, cortex cytoplasmic fraction [8]: lower α-synuclein protein levels | α-synuclein protein levels, cortex membrane fraction [8]: lower α-synuclein protein levels | amount of farnesylated UCH-L1 in the cortex ([9]; 45 mg/kg twice a day for 30 days, normalized to actin): decreased the amount of farnesylated UCH-L1

Cn1cncc1[C@@](N)(c1ccc(Cl)cc1)c1ccc2c(c1)c(-c1cccc(Cl)c1)cc(=O)n2C [Zarnestra]
α-synuclein-positive cells per mm, cortex [7, 14]: significantly fewer | α-synuclein-positive cells per mm, hippocampus [7, 14]: significantly fewer | inclusions vs vehicle ([7]; transgenic mice, 35 mg/kg orally twice a day for 30 days): fewer inclusions | Campbell-Switzer stained inclusions [10]: fewer inclusions | amount of farnesylated UCH-L1 in the cortex ([9]; 35 mg/kg twice a day for 30 days, membrane fraction): decreased the amount of farnesylated UCH-L1 in transgenic mice to levels similar to non-transgenic mice | ubiquitin-immunoreactive inclusions [11]: fewer ubiquitin-immuoreactive inclusions

CC(=O)N[C@@H](CSC(=O)[C@]1([C@@H](O)C(C)C)NC(=O)[C@H](C)[C@@H]1O)C(=O)O [lactacystin]
accumulation of α-synuclein ([1]; transfected COS-7 cells, 16 kDa α-synuclein normalized against actin, sets the scale): 100%
